This is an account of results in patent publication US7556939B2, “Identification and characterization of racemases, definition of protein signatures, and a test for detecting D-amino acid and for screening molecules capable of inhibiting the activity of racemase, especially proline racemase” (Institut Pasteur, priority 2003, dated 2009).

For series [1], the target named is T1, D-AAO (Sus scrofa, UniProt P00371).
T1 construct: purchased Sigma A-5222; host or cells: swine kidney
Put plainly: D-AAO/HRP microplate test for detection of D-amino acids. It counts as biochemical, swine. The procedure:
• (3) Prepare a mixture containing the enzymes (D-AAO/HRP Mix), as follows: The amounts are given for one well, provided that the final volume will be 100 μl with the racemase products or the substrate:
This mixture is kept in the ice until use. • (4) The quantitation reaction starts when 13 μl of D-AAO/HRP mix is added to the reaction well. • (5) The microplate is covered with an adhesive coverlid and it is left in the dark at 37° C. between […] and 2 hours. The reaction can be monitored by eye whenever a color gradient matches the D-amino acid concentration of the standard dilutions. • (6) The microplate is read with a microplate spectrophotometer using a filter of at 490 nm.
The D-AAO/HRP test described here above can also be used for this purpose with slight modifications. For that purpose, the racemase reaction step should be skipped and the microplate test should start straightforward at the II-1-2.1-2 step described above with the following remarks:
1) Standard: It should not be an equimolar mixture of D- and L-amino acid, but rather a serial dilution of D-Amino acids. The choice of amino acid is made according to the interest of the D-amino acid under investigation. The final volume in wells should be of 87 μl.
2) Negative control: It is made with the L-enantiomer of the D-amino acid under investigation. The final volume should be 87 μl.
3) Blank: It is made with 87 μl buffer*. (See paragraph II.1.1 Materials.)
4) Samples: The samples to be tested should be adjusted to pH 8,3 with buffer* and their final volumes should be of 87 μl per well.
Obs: Standards, negative controls, samples to test and blanks should be made in duplicates. They are dispensed into the wells of the microplate.
5) Then, the procedure follows steps 3) to 6), as above.
Different L- and D-amino acids were tested, namely Tyrosine (Tyr), Valine (Val), Threonine (Thr), Glutamic acid (Glu), Lysine (Lys) and Tryptophan (Try).

Series [2] has as its target T2, TcPRAC (Trypanosoma cruzi, UniProt Q4DA80).
T2 construct: made in house
The conditions noted are these: cited from earlier work.

Series [3] can be described thus: Stability of recombinant proline racemases under different storage conditions. It counts as physicochemical. The procedure: After purification on nickel-nitrilotriacetic acid agarose column, recombinant proteins were kept for 10 days in nickel column buffer (20 mM Tris/500 mM NaCl/500 mM imidazol, pH 8.0) at room temperature (RT) or at +4° C., or either diluted in 50% glycerol and maintained at −20° C. (Gly/−20° C.) or in optimum pH buffer (NaOAc, pH 6.0) at 4° C. Recombinant enzymes were precipitated in (NH4)2SO4 and kept in solution at 4° C. or pellet dried at −20° C. Racemase assays were performed for 30 min at 37° C.

A short description of series [4]: Racemization assays, polarimetric. It counts as biochemical. The note with it: for % racemization / Optical rotation: 5 μg protein, 40 mM L-proline, pH 6.0, 37° C. The procedure:
The reaction was stopped by incubating for 10 min at 80° C. and freezing. Water (1 ml) was then added, and the optical rotation was measured in a polarimeter 241 MC (Perkin Elmer, Montigny le Bretonneux, France) at a wavelength of 365 nm, in a cell with a path length of 10 cm, at a precision of 0.001 degree. […] All reagents were purchased from Sigma.
Optical rotation was measured and % of racemization was determined as described in Example 5.
Optical rotation was measured at different times and % of racemization was determined as described in Example 5.

Series [5] relates to Trypanosoma cruzi. The series is described as follows: Immunization of mice and infectious challenge with live Trypanosoma cruzi. In kind it is in vivo. The note with it: mice, sub-mitogenic doses.
The mark [6] stands for this setting: L-enantiomers, 12.5 mM, duplicate wells.
The mark [7] stands for this setting: D-enantiomers, 6.25 mM, duplicate wells.

Values joined by “and” are separate entries in the source; they are usually repeats but may differ in a detail not shown here. Identical values can stand only once.

T1 sequence (P00371 whole entry): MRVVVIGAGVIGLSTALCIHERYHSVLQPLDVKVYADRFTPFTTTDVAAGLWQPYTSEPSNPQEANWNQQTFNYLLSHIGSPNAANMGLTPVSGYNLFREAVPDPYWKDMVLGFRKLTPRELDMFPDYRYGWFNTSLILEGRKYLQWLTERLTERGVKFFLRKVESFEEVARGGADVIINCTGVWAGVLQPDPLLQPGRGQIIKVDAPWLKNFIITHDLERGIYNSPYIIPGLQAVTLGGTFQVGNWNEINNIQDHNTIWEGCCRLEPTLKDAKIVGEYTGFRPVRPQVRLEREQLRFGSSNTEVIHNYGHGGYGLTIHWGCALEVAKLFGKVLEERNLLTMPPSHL

As to `CC(C)[C@H](N)C(=O)O` [L-Val, Valine], in series [1] (setting [6]), the “Optical density at 490 nm” value is 0.135 and 0.129.

Take `O=C(O)[C@H]1CCCN1` [D-pro, D-proline]: the “Optical density at 490 nm” value is 0.173 in series [1] (0.05 mM); 0.213 and 0.215 in series [1] (0.09 mM); 0.308 and 0.32 in series [1] (0.19 mM); 0.496 and 0.504 in series [1] (0.39 mM); 0.809 and 0.824 in series [1] (0.77 mM); 1.234 and 1.221 in series [1] (1.55 mM). In addition, the “Optical density at 490 nm” value in series [1] (3.09 mM) is 1.716 and 1.879; in series [1] (6.19 mM), 1.983 and 1.949; in series [1] (12.37 mM) it was 1.814 and 1.976; in series [1] (24.75 mM), 1.757 and 1.885; in series [1] (49.5 mM), 1.961 and 2.004.

With `NC(=O)CI` [iodoacetamide], in series [2], the “TcPRAC enzymatic activity after alkylation” value is “abolished”.

In the case of `N[C@@H](CCC(=O)O)C(=O)O` [L-Glu, Glutamic acid], the “Optical density at 490 nm” value in series [1] (setting [6]) was 0.131 and 0.141.

Consider `N[C@@H](Cc1ccc(O)cc1)C(=O)O` [D-Tyr, Tyrosine], for which the “Optical density at 490 nm” value in series [1] (setting [7]) was 1.317 and 0.991.

Regarding `NCCCC[C@H](N)C(=O)O` [L-Lys, Lysine], the “Optical density at 490 nm” value in series [1] (setting [6]) is 0.125 and 0.131.

Regarding `N[C@@H](Cc1ccc(O)cc1)C(=O)O` [L-Tyr, Tyrosine], in series [1] (setting [6]), the “Optical density at 490 nm” value is 0.193 and 0.141.

As for `CC(C)[C@H](N)C(=O)O` [D-Val, Valine], the “Optical density at 490 nm” value in series [1] (setting [7]) is 1.683 and 1.612.

As for `N[C@@H](Cc1c[nH]c2ccccc12)C(=O)O` [L-Try, Tryptophan], the “Optical density at 490 nm” value in series [1] (setting [6]) is 0.131 and 0.138.

Turning to `O=C(O)CI` [iodoacetate], the “TcPRAC enzymatic activity after alkylation” value in series [2] is on record as “abolished”.

For `NCCCC[C@H](N)C(=O)O` [D-Lys, Lysine], the “Optical density at 490 nm” value in series [1] (setting [7]) was 0.243 and 0.157.

`C[C@@H](O)[C@H](N)C(=O)O` [L-Thr, Threonine]: the “Optical density at 490 nm” value in series [1] (setting [6]) was 0.124 and 0.128.

As to `C[C@@H](O)[C@H](N)C(=O)O` [D-Thr, Threonine], the “Optical density at 490 nm” value in series [1] (setting [7]) is 0.215 and 0.157.

Turning to `N[C@@H](CCC(=O)O)C(=O)O` [D-Glu, Glutamic acid], the “Optical density at 490 nm” value in series [1] (setting [7]) was 0.147 and 0.116.

Consider `N[C@@H](Cc1c[nH]c2ccccc12)C(=O)O` [D-Try, Tryptophan], for which, in series [1] (setting [7]), the “Optical density at 490 nm” value is 0.615 and 0.662.

B1: rTcPRACA: recombinant C-terminal His6-tagged T. cruzi proline racemase, 45 kDa secreted isoform, produced in E. coli (protein)
chain: GQEKLLFDQKYKIIKGEKKEKKKNQRANRREHQQKREIMRFKKSFTCIDMHTEGEAARIVTSGLPHIPGSNMAEKKAYLQENMDYLRRGIMLEPRGHDDMFGAFLFDPIEEGADLGMVFMDTGGYLNMCGHNSIAAVTAAVETGIVSVPAKATNVPVVLDTPAGLVRGTAHLQSGTESEVSNASIINVPSFLYQQDVVVVLPKPYGEVRVDIAFGGNFFAIVPAEQLGIDISVQNLSRLQEAGELLRTEINRSVKVQHPQLPHINTVDCVEIYGPPTNPEANYKNVVIFGNRQADRSPCGTGTSAKMATLYAKGQLRIGETFVYESILGSLFQGRVLGEERIPGVKVPVTKDAEEGMLVVTAEITGKAFIMGFNTMLFDPTDPFKNGFTLKQ
modifications: left off: small tags and cut ends
notes: recombinant C-terminal His6-tagged T. cruzi proline racemase, 45 kDa secreted isoform, produced in E. coli
As to B1, the “% of preservation of proline racemase activity” value in series [3] (10 days, 50% glycerol, −20° C. (Gly/−20° C.)) is 62.9%; in series [3] (10 days, NaOAc pH 6, 4° C.), 31.0%; in series [3] (10 days, column buffer pH 8.0, +4° C.) it was 65% and 66.5%; in series [3] (10 days, column buffer pH 8.0, RT), 16.0%; in series [3] ((NH4)2SO4 precipitated, in solution, 4° C.), 53.9%; in series [3] ((NH4)2SO4 precipitated, pellet dried, −20° C.), 100.0%. Besides, the “% of preservation of proline racemase activity” value in series [3] (CTRL, freshly purified proteins) is on record as 100.0%. Besides, the loss of activity in series [3] (10 days, room temperature, 0.5 M imidazol buffer pH 8.0) is listed as 84%. The “temperature of maximal enzyme activity” value in series [4] worked out at 37 °C. Also, the “% racemization” value in series [4] (0 min) worked out at 0%; in series [4] (10 min), 22%; in series [4] (30 min), 58%; in series [4] (60 min) it was 77%. The Optical rotation in series [4] (0 min) is −0.385; in series [4] (10 min) it was −0.300; in series [4] (30 min) it was −0.162; in series [4] (60 min), −0.088. For the same molecule, the “enzyme activity after heating” value in series [4] (5 min at 80° C.) is given as “abolished”.

B2: TcPRAC: Trypanosoma cruzi proline racemase, B cell mitogen, used for immunization of mice (protein)
chain: B1 chain
modifications: left off: small tags and cut ends
notes: Trypanosoma cruzi proline racemase, B cell mitogen, used for immunization of mice
On to B2, for which, in series [5], the “specific antibody responses directed to TcPRAC” value was “high levels of specific antibody responses”. The “immunoprotection against infectious challenge” value in series [5] (challenge with live Trypanosoma cruzi) is “high levels of immunoprotection”.
